Measurements reported in ChEMBL document CHEMBL4507320, “Data for DCP probe NVS-MALT1” (2021).

Key:
[1] = target: Dual specificity protein kinase CLK2 (Homo sapiens) (UniProt P49760); details: Compound concentration 1000.0 nM
[2] = target: Serine/threonine-protein kinase N2 (Homo sapiens) (UniProt Q16513); details: Compound concentration 1000.0 nM
[3] = target: Receptor tyrosine-protein kinase erbB-4 (Homo sapiens) (UniProt Q15303); details: Compound concentration 1000.0 nM
[4] = target: Ankyrin repeat and protein kinase domain-containing protein 1 (Homo sapiens) (UniProt Q8NFD2); details: Compound concentration 1000.0 nM
[5] = target: Platelet-derived growth factor receptor beta (Homo sapiens) (UniProt P09619); details: Compound concentration 1000.0 nM
[6] = target: Serine/threonine-protein kinase ULK3 (Homo sapiens) (UniProt Q6PHR2); details: Compound concentration 1000.0 nM
[7] = tested on: Mast/stem cell growth factor receptor Kit (Homo sapiens), P10721 [A829P]; details: Compound concentration 1000.0 nM
[8] = target: Mitogen-activated protein kinase kinase kinase kinase 4 (Homo sapiens) (UniProt O95819); details: Compound concentration 1000.0 nM
[9] = target: Calcium/calmodulin-dependent protein kinase type 1B (Homo sapiens) (UniProt Q6P2M8); details: Compound concentration 1000.0 nM
[10] = target: Fibroblast growth factor receptor 3 (Homo sapiens) (UniProt P22607); details: Compound concentration 1000.0 nM
[11] = target: Serine/threonine-protein kinase Nek1 (Homo sapiens) (UniProt Q96PY6); details: Compound concentration 1000.0 nM
[12] = target: Tyrosine-protein kinase TXK (Homo sapiens) (UniProt P42681); details: Compound concentration 1000.0 nM
[13] = target: Mitogen-activated protein kinase kinase kinase 2 (Homo sapiens) (UniProt Q9Y2U5); details: Compound concentration 1000.0 nM
[14] = target: Cyclin-dependent kinase 4 (Homo sapiens) (UniProt P11802); details: Compound concentration 1000.0 nM
[15] = target: Serine/threonine-protein kinase TBK1 (Homo sapiens) (UniProt Q9UHD2); details: Compound concentration 1000.0 nM
[16] = target: Dual specificity mitogen-activated protein kinase kinase 1 (Homo sapiens) (UniProt Q02750); details: Compound concentration 1000.0 nM
[17] = target: Serine/threonine-protein kinase WNK3 (Homo sapiens) (UniProt Q9BYP7); details: Compound concentration 1000.0 nM
[18] = target: Serine/threonine-protein kinase pim-3 (Homo sapiens) (UniProt Q86V86); details: Compound concentration 1000.0 nM
[19] = target: Serine/threonine-protein kinase SIK3 (Homo sapiens) (UniProt Q9Y2K2); details: Compound concentration 1000.0 nM
[20] = target: Ephrin type-A receptor 3 (Homo sapiens) (UniProt P29320); details: Compound concentration 1000.0 nM
[21] = target: Calcium/calmodulin-dependent protein kinase type 1G (Homo sapiens) (UniProt Q96NX5); details: Compound concentration 1000.0 nM
[22] = target: Histamine H1 receptor (Homo sapiens) (UniProt P35367); details: Compound concentration 10.0 uM
[23] = tested on: Tyrosine-protein kinase ABL1 (Homo sapiens), P00519 [H396P]; details: Compound concentration 1000.0 nM
[24] = target: Alpha-2C adrenergic receptor (Homo sapiens) (UniProt P18825); details: Compound concentration 10.0 uM
[25] = target: Serine/threonine-protein kinase ULK2 (Homo sapiens) (UniProt Q8IYT8); details: Compound concentration 1000.0 nM
[26] = tested on: Receptor-type tyrosine-protein kinase FLT3 (Homo sapiens), P36888 [N841I]; details: Compound concentration 1000.0 nM
[27] = tested on: Epidermal growth factor receptor (Homo sapiens), P00533 [UNDEFINED MUTATION]; details: Compound concentration 1000.0 nM
[28] = target: Macrophage colony-stimulating factor 1 receptor (Homo sapiens) (UniProt P07333); details: Compound concentration 1000.0 nM
[29] = target: TRAF2 and NCK-interacting protein kinase (Homo sapiens) (UniProt Q9UKE5); details: Compound concentration 1000.0 nM
[30] = target: Dual serine/threonine and tyrosine protein kinase (Homo sapiens) (UniProt Q6XUX3); details: Compound concentration 1000.0 nM
[31] = target: Ephrin type-A receptor 5 (Homo sapiens) (UniProt P54756); details: Compound concentration 1000.0 nM
[32] = target: Sigma intracellular receptor 2 (Homo sapiens, UniProt Q5BJF2); details: Compound concentration 10.0 uM
[33] = target: Receptor-type tyrosine-protein kinase FLT3 (Homo sapiens, UniProt P36888); details: Compound concentration 1000.0 nM
[34] = target: Ephrin type-A receptor 1 (Homo sapiens) (UniProt P21709); details: Compound concentration 1000.0 nM
[35] = target: Inhibitor of nuclear factor kappa-B kinase subunit beta (Homo sapiens) (UniProt O14920); details: Compound concentration 1000.0 nM
[36] = target: Ephrin type-B receptor 6 (Homo sapiens) (UniProt O15197); details: Compound concentration 1000.0 nM
[37] = target: Serine/threonine-protein kinase NLK (Homo sapiens) (UniProt Q9UBE8); details: Compound concentration 1000.0 nM
[38] = target: Mitogen-activated protein kinase 9 (Homo sapiens) (UniProt P45984); details: Compound concentration 1000.0 nM
[39] = target: Mast/stem cell growth factor receptor Kit (Homo sapiens) (UniProt P10721); details: Compound concentration 1000.0 nM
[40] = target: Serine/threonine-protein kinase PRP4 homolog (Homo sapiens) (UniProt Q13523); details: Compound concentration 1000.0 nM
[41] = target: MAP kinase-activated protein kinase 2 (Homo sapiens) (UniProt P49137); details: Compound concentration 1000.0 nM
[42] = target: Alpha-2A adrenergic receptor (Homo sapiens) (UniProt P08913); details: Compound concentration 10.0 uM
[43] = target: Non-receptor tyrosine-protein kinase TYK2 (Homo sapiens) (UniProt P29597); details: Compound concentration 1000.0 nM
[44] = target: Microtubule-associated serine/threonine-protein kinase 1 (Homo sapiens) (UniProt Q9Y2H9); details: Compound concentration 1000.0 nM
[45] = target: Serine/threonine-protein kinase 38-like (Homo sapiens) (UniProt Q9Y2H1); details: Compound concentration 1000.0 nM

Chain of Platelet-derived growth factor receptor beta (Homo sapiens) (P09619 whole entry): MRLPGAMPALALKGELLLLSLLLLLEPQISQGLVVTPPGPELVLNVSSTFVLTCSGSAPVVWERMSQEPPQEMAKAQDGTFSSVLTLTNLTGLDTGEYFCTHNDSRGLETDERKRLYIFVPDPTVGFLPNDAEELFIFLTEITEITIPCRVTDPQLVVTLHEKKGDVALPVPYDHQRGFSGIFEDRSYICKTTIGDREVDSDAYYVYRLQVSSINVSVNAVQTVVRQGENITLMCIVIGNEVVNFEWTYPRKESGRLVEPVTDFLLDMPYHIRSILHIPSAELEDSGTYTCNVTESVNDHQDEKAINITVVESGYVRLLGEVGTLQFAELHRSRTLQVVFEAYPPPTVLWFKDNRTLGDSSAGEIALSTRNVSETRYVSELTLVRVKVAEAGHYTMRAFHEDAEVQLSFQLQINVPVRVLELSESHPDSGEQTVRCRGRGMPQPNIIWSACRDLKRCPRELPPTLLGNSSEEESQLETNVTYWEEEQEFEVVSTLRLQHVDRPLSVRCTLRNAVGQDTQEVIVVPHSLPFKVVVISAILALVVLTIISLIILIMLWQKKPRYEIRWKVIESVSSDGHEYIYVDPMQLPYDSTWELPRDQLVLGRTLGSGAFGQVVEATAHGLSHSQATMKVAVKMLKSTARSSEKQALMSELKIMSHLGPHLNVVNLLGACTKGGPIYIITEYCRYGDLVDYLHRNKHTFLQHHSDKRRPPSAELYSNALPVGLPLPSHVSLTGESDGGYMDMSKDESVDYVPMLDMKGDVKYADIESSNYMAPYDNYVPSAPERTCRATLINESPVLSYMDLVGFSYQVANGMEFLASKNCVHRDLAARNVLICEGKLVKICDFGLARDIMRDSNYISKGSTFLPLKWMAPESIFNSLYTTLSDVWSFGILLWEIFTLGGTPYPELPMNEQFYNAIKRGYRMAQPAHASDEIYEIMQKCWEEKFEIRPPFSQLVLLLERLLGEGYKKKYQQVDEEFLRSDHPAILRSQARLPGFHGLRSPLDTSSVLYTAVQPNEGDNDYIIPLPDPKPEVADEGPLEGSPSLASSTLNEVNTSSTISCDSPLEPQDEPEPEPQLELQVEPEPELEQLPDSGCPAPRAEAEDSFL
Chain of Serine/threonine-protein kinase ULK2 (Homo sapiens) (Q8IYT8 whole entry): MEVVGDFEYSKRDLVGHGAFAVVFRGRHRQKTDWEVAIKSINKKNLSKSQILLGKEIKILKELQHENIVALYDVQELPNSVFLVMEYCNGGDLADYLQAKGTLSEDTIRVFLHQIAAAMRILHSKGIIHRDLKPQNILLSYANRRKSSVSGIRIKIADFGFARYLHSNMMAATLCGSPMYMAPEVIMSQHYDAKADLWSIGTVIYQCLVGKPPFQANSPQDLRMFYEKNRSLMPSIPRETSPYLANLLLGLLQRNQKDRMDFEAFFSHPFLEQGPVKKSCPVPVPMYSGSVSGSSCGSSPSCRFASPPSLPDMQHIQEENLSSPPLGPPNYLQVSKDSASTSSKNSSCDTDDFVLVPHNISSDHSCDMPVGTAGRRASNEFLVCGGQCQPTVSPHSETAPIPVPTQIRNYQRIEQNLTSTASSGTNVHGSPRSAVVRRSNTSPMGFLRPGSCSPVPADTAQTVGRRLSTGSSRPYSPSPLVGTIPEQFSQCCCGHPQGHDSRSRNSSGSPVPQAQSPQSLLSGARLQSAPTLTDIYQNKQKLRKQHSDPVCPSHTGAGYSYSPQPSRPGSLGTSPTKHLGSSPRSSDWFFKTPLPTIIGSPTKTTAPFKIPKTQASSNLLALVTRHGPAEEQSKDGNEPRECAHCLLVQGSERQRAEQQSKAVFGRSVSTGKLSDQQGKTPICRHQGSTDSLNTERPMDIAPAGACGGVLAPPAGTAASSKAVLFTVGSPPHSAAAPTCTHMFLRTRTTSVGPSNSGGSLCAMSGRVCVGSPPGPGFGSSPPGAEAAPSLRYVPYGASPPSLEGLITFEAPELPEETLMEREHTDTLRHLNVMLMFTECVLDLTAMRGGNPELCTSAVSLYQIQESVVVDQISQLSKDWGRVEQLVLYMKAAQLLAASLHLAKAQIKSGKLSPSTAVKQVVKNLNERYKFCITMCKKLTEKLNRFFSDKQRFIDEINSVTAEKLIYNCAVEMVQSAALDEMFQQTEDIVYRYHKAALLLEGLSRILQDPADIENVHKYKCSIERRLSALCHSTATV
Chain of Ephrin type-A receptor 5 (Homo sapiens) (P54756 whole entry): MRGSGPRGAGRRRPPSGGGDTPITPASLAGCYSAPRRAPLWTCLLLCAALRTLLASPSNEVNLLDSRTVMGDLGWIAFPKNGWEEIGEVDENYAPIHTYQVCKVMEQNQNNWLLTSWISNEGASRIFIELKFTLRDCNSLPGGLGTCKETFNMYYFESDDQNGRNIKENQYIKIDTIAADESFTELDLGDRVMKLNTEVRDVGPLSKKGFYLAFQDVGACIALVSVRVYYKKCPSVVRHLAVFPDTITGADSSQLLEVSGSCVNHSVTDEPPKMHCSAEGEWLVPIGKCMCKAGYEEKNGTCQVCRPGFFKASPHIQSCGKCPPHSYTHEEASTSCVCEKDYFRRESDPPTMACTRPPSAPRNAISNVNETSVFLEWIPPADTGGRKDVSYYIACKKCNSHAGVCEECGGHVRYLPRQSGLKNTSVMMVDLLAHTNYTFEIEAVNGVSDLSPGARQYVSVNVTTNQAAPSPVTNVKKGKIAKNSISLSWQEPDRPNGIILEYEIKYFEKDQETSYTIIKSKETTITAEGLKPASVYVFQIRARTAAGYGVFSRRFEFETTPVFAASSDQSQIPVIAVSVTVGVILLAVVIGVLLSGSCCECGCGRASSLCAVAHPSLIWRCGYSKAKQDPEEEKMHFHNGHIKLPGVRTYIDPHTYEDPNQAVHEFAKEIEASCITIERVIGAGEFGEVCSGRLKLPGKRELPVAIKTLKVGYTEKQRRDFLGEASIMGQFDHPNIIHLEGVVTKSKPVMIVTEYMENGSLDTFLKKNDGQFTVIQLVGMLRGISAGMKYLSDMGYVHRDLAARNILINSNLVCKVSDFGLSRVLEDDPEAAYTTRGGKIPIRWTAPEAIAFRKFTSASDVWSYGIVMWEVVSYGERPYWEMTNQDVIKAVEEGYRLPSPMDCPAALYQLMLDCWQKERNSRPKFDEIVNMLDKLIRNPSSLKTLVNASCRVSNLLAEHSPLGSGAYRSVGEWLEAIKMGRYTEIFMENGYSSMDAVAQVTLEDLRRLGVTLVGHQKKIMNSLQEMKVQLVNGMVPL
Chain of Serine/threonine-protein kinase TBK1 (Homo sapiens) (Q9UHD2 whole entry): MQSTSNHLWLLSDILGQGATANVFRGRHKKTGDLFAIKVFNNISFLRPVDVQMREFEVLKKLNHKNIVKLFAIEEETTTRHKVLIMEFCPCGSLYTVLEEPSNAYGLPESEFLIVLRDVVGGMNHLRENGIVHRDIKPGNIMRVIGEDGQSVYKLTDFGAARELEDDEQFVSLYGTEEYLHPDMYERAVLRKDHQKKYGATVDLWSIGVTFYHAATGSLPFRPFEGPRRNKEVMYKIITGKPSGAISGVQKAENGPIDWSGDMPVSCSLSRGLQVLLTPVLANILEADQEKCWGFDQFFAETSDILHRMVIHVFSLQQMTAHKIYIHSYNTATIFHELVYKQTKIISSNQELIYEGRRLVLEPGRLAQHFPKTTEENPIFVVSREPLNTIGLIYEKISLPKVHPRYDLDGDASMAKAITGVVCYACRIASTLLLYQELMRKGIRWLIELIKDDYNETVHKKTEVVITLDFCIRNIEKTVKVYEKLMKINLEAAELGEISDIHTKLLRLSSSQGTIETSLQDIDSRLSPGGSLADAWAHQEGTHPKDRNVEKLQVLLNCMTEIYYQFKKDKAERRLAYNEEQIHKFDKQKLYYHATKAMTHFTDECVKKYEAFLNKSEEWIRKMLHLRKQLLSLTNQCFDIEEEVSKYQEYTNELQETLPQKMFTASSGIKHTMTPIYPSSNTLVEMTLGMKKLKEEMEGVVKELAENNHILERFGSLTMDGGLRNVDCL
Chain of Alpha-2C adrenergic receptor (Homo sapiens) (P18825 whole entry): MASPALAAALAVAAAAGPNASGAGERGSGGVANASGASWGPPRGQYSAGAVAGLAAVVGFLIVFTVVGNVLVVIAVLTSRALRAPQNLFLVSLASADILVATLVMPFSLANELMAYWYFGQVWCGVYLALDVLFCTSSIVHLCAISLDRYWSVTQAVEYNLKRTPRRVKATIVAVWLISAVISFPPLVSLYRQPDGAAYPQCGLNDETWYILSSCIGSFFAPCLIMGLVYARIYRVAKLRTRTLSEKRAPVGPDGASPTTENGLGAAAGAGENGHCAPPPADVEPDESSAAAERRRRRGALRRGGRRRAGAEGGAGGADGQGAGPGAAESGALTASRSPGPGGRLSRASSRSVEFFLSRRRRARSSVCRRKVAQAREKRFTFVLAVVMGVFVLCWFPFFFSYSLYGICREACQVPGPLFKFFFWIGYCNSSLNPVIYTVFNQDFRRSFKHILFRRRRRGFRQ
Chain of Serine/threonine-protein kinase NLK (Homo sapiens) (Q9UBE8 whole entry): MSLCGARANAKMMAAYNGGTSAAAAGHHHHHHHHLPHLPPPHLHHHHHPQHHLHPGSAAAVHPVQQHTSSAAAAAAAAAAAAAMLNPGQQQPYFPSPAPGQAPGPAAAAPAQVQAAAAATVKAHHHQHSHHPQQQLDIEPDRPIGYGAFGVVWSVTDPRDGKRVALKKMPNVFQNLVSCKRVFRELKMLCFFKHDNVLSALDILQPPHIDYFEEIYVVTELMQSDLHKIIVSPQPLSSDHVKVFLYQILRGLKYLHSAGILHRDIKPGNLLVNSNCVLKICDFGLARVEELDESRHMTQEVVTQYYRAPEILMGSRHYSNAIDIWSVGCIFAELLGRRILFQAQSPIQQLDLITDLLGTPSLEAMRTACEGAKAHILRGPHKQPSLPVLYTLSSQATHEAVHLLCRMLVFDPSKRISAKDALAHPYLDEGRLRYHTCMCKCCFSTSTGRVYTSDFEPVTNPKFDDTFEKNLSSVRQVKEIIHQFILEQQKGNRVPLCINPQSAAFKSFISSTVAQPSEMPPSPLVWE
Chain of Sigma intracellular receptor 2 (Q5BJF2 whole entry): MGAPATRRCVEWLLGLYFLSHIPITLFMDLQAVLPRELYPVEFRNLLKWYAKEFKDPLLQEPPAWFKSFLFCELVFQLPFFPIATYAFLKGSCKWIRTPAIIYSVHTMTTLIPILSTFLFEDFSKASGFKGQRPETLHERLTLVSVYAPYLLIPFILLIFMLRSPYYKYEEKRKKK

## CO[C@@H](C)c1c(Nc2ccc([C@H](N(C)C(=O)C3CCS(=O)(=O)CC3)C(F)(F)F)cc2)cnc2cc(Cl)nn12 [NVS-MALT1]
[1]
  residual activity: 100%
[2]
  residual activity: 100%
[3]
  residual activity: 84%
[4]
  residual activity: 100%
[5]
  residual activity: 100%
[6]
  residual activity: 94%
[7]
  residual activity: 100%
[8]
  residual activity: 100%
[9]
  residual activity: 100%
[10]
  residual activity: 88%
[11]
  residual activity: 94%
[12]
  residual activity: 87%
[13]
  residual activity: 100%
[14]
  residual activity: 100%
[15]
  residual activity: 59%
[16]
  residual activity: 100%
[17]
  residual activity: 95%
[18]
  residual activity: 86%
[19]
  residual activity: 100%
[20]
  residual activity: 97%
[21]
  residual activity: 100%
[22]
  inhibition: 10.2%
[23]
  residual activity: 95%
[24]
  inhibition: 4.48%
[25]
  residual activity: 96%
[26]
  residual activity: 23%
[27]
  residual activity: 98%
[28]
  residual activity: 77%
[29]
  residual activity: 100%
[30]
  residual activity: 100%
[31]
  residual activity: 100%
[32]
  inhibition: 49.1%
[33]
  residual activity: 68%
[34]
  residual activity: 100%
[35]
  residual activity: 100%
[36]
  residual activity: 100%
[37]
  residual activity: 83%
[38]
  residual activity: 92%
[39]
  residual activity: 100%
[40]
  residual activity: 100%
[41]
  residual activity: 90%
[42]
  inhibition: 14.6%
[43]
  residual activity: 100%
[44]
  residual activity: 43%
[45]
  residual activity: 75%

## CO[C@@H](C)c1c(Nc2ccc([C@@H](N(C)C(=O)C3CCS(=O)(=O)CC3)C(F)(F)F)cc2)cnc2cc(Cl)nn12 [NVS-MALT1-C]
[1]
  residual activity: 100%
[2]
  residual activity: 88%
[3]
  residual activity: 77%
[4]
  residual activity: 100%
[5]
  residual activity: 100%
[6]
  residual activity: 97%
[7]
  residual activity: 100%
[8]
  residual activity: 100%
[9]
  residual activity: 100%
[10]
  residual activity: 90%
[11]
  residual activity: 100%
[12]
  residual activity: 84%
[13]
  residual activity: 100%
[14]
  residual activity: 100%
[15]
  residual activity: 77%
[16]
  residual activity: 100%
[17]
  residual activity: 84%
[18]
  residual activity: 97%
[19]
  residual activity: 100%
[20]
  residual activity: 90%
[21]
  residual activity: 100%
[22]
  inhibition: -9.88%
[23]
  residual activity: 96%
[24]
  inhibition: 1.97%
[25]
  residual activity: 92%
[26]
  residual activity: 57%
[27]
  residual activity: 100%
[28]
  residual activity: 72%
[29]
  residual activity: 100%
[30]
  residual activity: 100%
[31]
  residual activity: 100%
[32]
  inhibition: 57.1%
[33]
  residual activity: 64%
[34]
  residual activity: 97%
[35]
  residual activity: 100%
[36]
  residual activity: 100%
[37]
  residual activity: 84%
[38]
  residual activity: 76%
[39]
  residual activity: 100%
[40]
  residual activity: 91%
[41]
  residual activity: 100%
[42]
  inhibition: 5.1%
[43]
  residual activity: 98%
[44]
  residual activity: 29%
[45]
  residual activity: 75%
